Experimental data taken from BigSolDB 2.1.

Nc1ccc(S(=O)(=O)Nc2ncccn2)cc1
solubility (mole fraction)
Conditions	278.15 K	283.15 K	288.15 K	293.15 K	298.15 K	303.15 K	308.15 K	313.15 K	318.15 K
in acetonitrile	0.000316	0.000385	0.000465	0.000532	0.000602	0.000666	0.000775	0.000865	0.000935
in methanol	7.1e-05	9.5e-05	0.000132	0.000162	0.000191	0.000236	0.00029	0.00034	0.000384
